Results on 22 compounds are retold here after patent EP0186452A2, “Organosilicon compounds process for their production and pharmaceutical compositions thereof” (SANWA KAGAKU KENKYUSHO CO., LTD., priority 1984, dated 1986).

Data set [1] can be described thus: Acute toxicity, oral dosage to mice, LD50. To be noted: mouse, in vivo, single dose suspended in 0.1% P-1570, ICR female mice, observed 21 days. An excerpt: Each test compound suspended in 0.1% P-1570 was orally and forcedly dosed through a gastric probe to ICR female mice (21 - 22g, age of about 5 weeks). An identification number was given to each mouse, and weighing and observation on general behaviour were done just before the dosage and each day after the same. Each dead mouse was subjected without delay to an autopsy to check the same, more particularly in detail on enterona. All living mice were killed at the 21st day from the dosage to carry out an autopsy for checking the same, more particularly on the entrails.
An LD50 was calculated in accordance with Leed.and Munch's method.

For the next data set, the system named is colon-38 carcinoma. Put plainly: Anti-tumor action to colon-38 carcinoma transplanted under skin of mice. The class given is in vivo, BDF1 female mice. To be noted: 5th and 9th day, tumor weight at 28th day vs non-treated control; for inhibition in vivo at 338 mg/kg: 338 mg/kg/day x 3, oral at 1st; for inhibition in vivo at 323 mg/kg: 323 mg/kg/day x 3, oral at 1st. As for the experimental part: 0.02 ml of 10(W/V) cell suspension prepared from a solid cancer cell (colon-38 carcinoma) was transplanted under skin of BDF1 female mice (20 - 21g, age of about 5 weeks), and each test compound was orally dosed at lst, 5th and 9th day after the transplantation. major and minor axes of the forming cancerous tumor were measured at llth, 14th, 18th, 21st, 25th and 28th day after the transplantation to calcuate the volume ofthe cancerous tumor in accordance with the equation: [formula] • wherein L: major axis (mm) • W: minor axis (mm)
At 28th day from the transplantation, the mice were killed and each of the cancerous tumors was enucleated to measure its weight and to determine an inhibition ratio in comparison with that in a non-treated control group.

The test system of a further data set is B-16 melanoma. Put plainly: Anti-tumor action to B-16 melanoma transplanted under skin of mice. In kind it is in vivo, BDF1 female mice. To be noted: Mus musculus, B16, 504 h, 5th and 9th day, tumor weight at 21st day, read-out: Inhibition Ratio (%); for inhibition in vivo at 250 mg/kg: 250 mg/kg/day x 3, oral at 1st; for inhibition in vivo at 500 mg/kg: 500 mg/kg/day x 3, oral at 1st; for inhibition in vivo at 125 mg/kg: 125 mg/kg/day x 3, oral at 1st. An excerpt: A cancer cell of B-16 melanoma (1 x 10^5 cells) was transplanted under skin of BDF1 female mice (age of about 5 weeks), and each of testing compounds was orally dosed at lst, 5th and 9th day after the transplantation. At 21st day after the transplantation, the mice were killed to measure a weight of the formed cancerous tumor and to finally determine an inhibition ratio due to the dosage of the test compound.

Where [2] appears, read: Mus musculus, 672 h, read-out: Inhibition Ratio (%).

Broadly, the LD50 is the dose expected to kill half of the subjects tested. Low readings indicate greater toxicity, high ones lower toxicity. On to `CC(C)[Si](C)(C)CCCSCCNC(=O)n1cc(F)c(=O)[nH]c1=O` [compound 6, 1-[2-[[3-(Dimethylisopropylsilyl)propyl]thio]-ethylcarbamoyl]-5-fluorouracil], for which, in data set [1], the LD50 at 504 h turned out to be 1820 mg/kg. Also, the inhibition in vivo at 338 mg/kg with colon-38 carcinoma (setting [2]) is 95.9%.

For `CC(C)(C)[Si](C)(C)CCCSCCCN` [Example 9, 3-[[3-(t-Butyldimethylsilyl)propyl]thio)propylamine], in the data set on B-16 melanoma, the inhibition in vivo at 250 mg/kg turned out to be 57.3% and the inhibition in vivo at 500 mg/kg came to 51.9%. Further, in data set [1], the median lethal dose (LD50) at 504 h was over 1500 mg/kg.

Consider `CC(C)(C)[Si](C)(C)CCCSCCN` [Example 7, 2[[3-(t-Butyldimethylsilyl)propyl]thio]ethylamine], for which, in the data set on B-16 melanoma, the inhibition in vivo at 250 mg/kg is 50% and the inhibition in vivo at 500 mg/kg stood at 32.7%. This compound yielded a median lethal dose (LD50) at 504 h in data set [1] of over 1500 mg/kg.

As to `CCCC[Si](C)(C)CCSCCNC(=O)n1cc(F)c(=O)[nH]c1=O` [compound 3, 1-[2-[[2-(Dimethyl-n-butylsilyl)ethyl]thio]-ethylcarbamoyl]-5-fluorouracil], the LD50 at 504 h in data set [1] amounted to 1380 mg/kg. Besides, the inhibition in vivo at 300 mg/kg in the data set on colon-38 carcinoma (Mus musculus, 672 h, 300 mg/kg/day x 3, oral at 1st, read-out: Inhibition Ratio (%)) came out at 81.2%.

Consider `CCCC[Si](C)(C)CCCSCCCN` [Example 10, 3-[[3-(n-Butyldimethylsilyl)propyl)thio)propylamine], for which, in the data set on B-16 melanoma, the inhibition in vivo at 250 mg/kg turned out to be 50.4% and the inhibition in vivo at 500 mg/kg came out at 29.8%. The compound further displayed an LD50 at 504 h in data set [1] of over 1500 mg/kg.

For `CCCC[Si](C)(C)CCCSCCCNC(=O)n1cc(F)c(=O)[nH]c1=O` [compound 10, 1-{3-{[3-(n-Butyldimethylsilyl)propyl]thio}-propylcarbamoyl}-5-fluorouracil], in the data set with B-16 melanoma, the inhibition in vivo at 125 mg/kg was found to be 69.5% and the inhibition in vivo at 250 mg/kg was 88.5%. This compound also displayed an LD50 at 504 h in data set [1] of 1850 mg/kg. The inhibition in vivo at 323 mg/kg in the data set on colon-38 carcinoma (setting [2]) stood at 92.3%.

As to `CC(C)[Si](C)(C)CCSCCNC(=O)n1cc(F)c(=O)[nH]c1=O` [Reference Example 2, 1-[2-[[2-(Dimethylisopropylsilyl)ethyl]thio]-ethylcarbamoyl]-5-fluorouracil], the inhibition in vivo at 300 mg/kg with B-16 melanoma (300 mg/kg/day x 3, oral at 1st) is 79.7%. The LD50 at 504 h in data set [1] came out at 1380 mg/kg. In addition, in the data set on colon-38 carcinoma (Mus musculus, 672 h, 289 mg/kg/day x 3, oral at 1st, read-out: Inhibition Ratio (%)), the inhibition in vivo at 289 mg/kg amounted to 89.8%.

For the compound `CC(C)[Si](C)(C)CCCSCCCN` [Example 8, 3-[[3-(Isopropyldimethylsilyl)propyl]thio]propylamine], in the data set with B-16 melanoma, the inhibition in vivo at 250 mg/kg amounted to 61.1% and the inhibition in vivo at 500 mg/kg came to 46.3%. For the same compound, the median lethal dose (LD50) at 504 h in data set [1] is over 1500 mg/kg.

As for `CC(C)(C)[Si](C)(C)CCCSCCNC(=O)n1cc(F)c(=O)[nH]c1=O` [compound 7, 1-{2-{[3-(Dimethyl-t-butylsilyl]propyl)thio}-ethylcarbamoyl}-5-fluorouracil], the inhibition in vivo at 250 mg/kg with B-16 melanoma turned out to be 43.1%. In data set [1], this compound had an LD50 at 504 h of 1380 mg/kg. In addition, the inhibition in vivo at 311 mg/kg with colon-38 carcinoma (Mus musculus, 672 h, 311 mg/kg/day x 3, oral at 1st, read-out: Inhibition Ratio (%)) came out at 81%.

Regarding `CC(C)(C)[Si](C)(C)CCCSCCCNC(=O)n1cc(F)c(=O)[nH]c1=O` [compound 9, 1-{3-{[3-(t-Butyldimethylsilyl)propyl]thio}-propylcarbamoyl}-5-fluorouracil], in the data set on B-16 melanoma, the inhibition in vivo at 125 mg/kg was determined as 55.2% and the inhibition in vivo at 250 mg/kg came out at 46.3%. In data set [1], this compound displayed an LD50 at 504 h of 1800 mg/kg. In addition, the inhibition in vivo at 323 mg/kg in the data set on colon-38 carcinoma (setting [2]) was found to be 90.1%.

`C[Si](C)(CCCSCCCNC(=O)n1cc(F)c(=O)[nH]c1=O)c1ccccc1` [compound 11, 1-{3-{[3-(Dimethylphenylsilyl)propyl]thio}-propylcarbamoyl}-5-fluorouracil]: in the data set on B-16 melanoma, the inhibition in vivo at 125 mg/kg worked out at 82.2% and the inhibition in vivo at 250 mg/kg turned out to be 70.5%. The same compound returned an LD50 at 504 h in data set [1] of 1800 mg/kg. Moreover, the inhibition in vivo at 339 mg/kg in the data set on colon-38 carcinoma (Mus musculus, 672 h, 339 mg/kg/day x 3, oral at 1st, read-out: Inhibition Ratio (%)) came to 97.9%.

In data set [1], `CCCC[Si](C)(C)CCSCCN` [Example 3, 2-[[2-(n-Butyldimethylsilyl)ethyl]thio]ethylamine] returned an LD50 at 504 h of over 1500 mg/kg.

On to `CC(C)[Si](C)(C)CCSCCCN` [Example 5, 3-[[2-(Isopropyldimethylsilyl)ethyl]thio]propylamine], for which, in the data set on B-16 melanoma, the inhibition in vivo at 250 mg/kg turned out to be 21.4% and the inhibition in vivo at 500 mg/kg came out at 50.6%. In addition, the LD50 at 504 h in data set [1] came out at 750 mg/kg.

Take `CCCCCCCC[Si](C)(C)CCSCCNC(=O)n1cc(F)c(=O)[nH]c1=O` [Reference Example 1, 1-[2-[[2-dimethyl-n-octylsilylethyl)thio]ethylcarbamoyl]-5-fluorouracil]: the LD50 at 504 h in data set [1] came out at 1580 mg/kg. Besides, in the data set on colon-38 carcinoma (Mus musculus, 672 h, 345 mg/kg/day x 3, oral at 1st, read-out: Inhibition Ratio (%)), the inhibition in vivo at 345 mg/kg stood at 80%.

`CC(C)[Si](C)(C)CCCSCCCNC(=O)n1cc(F)c(=O)[nH]c1=O` [compound 8, 1-{3-{[3-(Dimethylisopropylsilyl)propyl]thio}-propylcarbamoyl}-5-fluorouracil]: in the data set on B-16 melanoma, the inhibition in vivo at 125 mg/kg was 32.8% and the inhibition in vivo at 250 mg/kg came to 45.7%. This compound also returned a 50% lethal dose (LD50) at 504 h in data set [1] of 2120 mg/kg. Also, in the data set on colon-38 carcinoma (Mus musculus, 672 h, 350 mg/kg/day x 3, oral at 1st, read-out: Inhibition Ratio (%)), the inhibition in vivo at 350 mg/kg turned out to be 90.3%.

With `CC(C)[Si](C)(C)CCSCCN` [Example 2, Z-([2-(Isopropyldimethylsilyl)ethyl]thio]ethylamine], in the data set on B-16 melanoma, the inhibition in vivo at 250 mg/kg turned out to be 23.8% and the inhibition in vivo at 500 mg/kg came out at 36.1%. For the same compound, the LD50 at 504 h in data set [1] was 1620 mg/kg.

For `C[Si](C)(CCCSCCCN)c1ccccc1` [Example 11, 3[[3-(Dimethylphenylsilyl)propyl]thio]propylamine], in the data set with B-16 melanoma, the inhibition in vivo at 250 mg/kg was 38.7% and the inhibition in vivo at 500 mg/kg is 45.4%. Besides, in data set [1], the LD50 at 504 h is over 1500 mg/kg.

In data set [1], `CC(C)[Si](C)(C)CCCSCCN` [Example 6, Z-[[3-(Isopropyldimethylsilyl)propyl]thio]ethylamine] came in with an LD50 at 504 h of 1500 mg/kg.

`CC(C)[Si](C)(C)CCSCCCNC(=O)n1cc(F)c(=O)[nH]c1=O` [compound 5, 1-[3-[[2-(Dimethylisopropylsilyl)ethyl]thio]-propylcarbamoyl]-5-fluorouracil]: in the data set with B-16 melanoma, the inhibition in vivo at 125 mg/kg stood at 17.6% and the inhibition in vivo at 250 mg/kg was 19.4%. This compound yielded an LD50 at 504 h in data set [1] of 2250 mg/kg. Further, in the data set with colon-38 carcinoma (setting [2]), the inhibition in vivo at 338 mg/kg came out at 98.4%.

In turn, `C[Si](CCSCCN)(c1ccccc1)c1ccccc1` [Example 4, 2-[[2-(Methyldiphenylsilyl)ethyl]thio)ethylamine] showed an LD50 at 504 h in data set [1] of over 1500 mg/kg.

Compound `CCCCCCCC[Si](C)(C)CCSCCN` [Example 1, 2-[[2-(Dimethyl-n-octylsilyl)ethyl]thio]ethylamine] registered an LD50 at 504 h in data set [1] of over 1500 mg/kg.

Consider `C[Si](CCSCCNC(=O)n1cc(F)c(=O)[nH]c1=O)(c1ccccc1)c1ccccc1` [compound 4, 1-[2-[[2-(Diphenylmethylsilyl)ethyl]thio]-ethylcarbamoyl]-5-fluorouracil], for which the median lethal dose (LD50) at 504 h in data set [1] came out at 1400 mg/kg. In the data set with colon-38 carcinoma (366 mg/kg/day x 3, oral at 1st), the “Inhibition Ratio (%)” value is given as 32.2%.
